Tested on: rats subjected to li-pilo SE
Assay: Quantification of cell densities 14 days after lithium-pilocarpine SE (Example 2)
Type: in vivo, rat
Details: 14 days after SE
Method: All rats received lithium chloride (3 meq/kg, i.p., Sigma, St Louis, Mo., U.S.A.) and about 20 h later, all animals received also methylscopolamine bromide (1 mg/kg, s.c., Sigma) that was administered to limit the peripheral effects of the convulsant. SE was induced by injecting pilocarpine hydrochloride (25 mg/kg, s.c., Sigma) 30 min after methylscopolamine. The effects of increasing doses of TC (RWJ) were studied in 5 groups of rats. […] The control group received vehicle instead of pilocarpine and TC.
At the moment, neuronal counting is still in progress in the second group of animals studied for epileptogenesis and long-term counting and the data concerning that part of the study will not be included in the present report. For neuronal counting, animals were deeply anesthetized with […] pentobarbital (Dolethal®, Vetoquinol, Lure, France). Brains were then removed and frozen. Serial 20 μm slices were cut in a cryostat, air-dried during several days before thionine staining. […] The grid of counting was placed on a well defined area of the cerebral structure of interest and counting was carried out with a microscopic enlargement of 200- or 400-fold defined for each single cerebral structure. Cell counts were performed twice on each side of three adjacent sections for each region by a single observer unaware of the animal's treatment. The number of cells obtained in the 12 counted fields in each cerebral structure was averaged. This procedure was used to minimize the potential errors that could result from double counting leading to overestimation of cell numbers. […] Counts involved only neurons with cell bodies larger than 10 μm. Cells with small cell bodies were considered as glial cells and were not counted.
For neuronal damage and epileptogenesis, statistical analysis between groups was performed by means of a one-way analysis of variance followed by a post-hoc Dunnett or Fisher test using the Statistica software.

NC(=O)OC[C@@H](O)c1ccccc1Cl [Formula 7]
number of neuronal cell bodies, Cerebral cortex, Piriform, layer II, ventral (pilo-TC60 (60 mg/kg), n = 11): 13.7 ± 4.2 | number of neuronal cell bodies, Cerebral cortex, Piriform, layer III (pilo-TC60 (60 mg/kg), n = 11): 6.4 ± 2.3 | number of neuronal cell bodies, Hippocampus, CA1 area (pilo-TC60 (60 mg/kg), n = 11): 31.9 ± 4.4**°° | number of neuronal cell bodies, Hippocampus, CA3 area (pilo-TC60 (60 mg/kg), n = 11): 31.6 ± 1.4 | number of neuronal cell bodies, Hippocampus, Hilus (pilo-TC60 (60 mg/kg), n = 11): 32.8 ± 3.3 | number of neuronal cell bodies, Thalamus, Central medial (pilo-TC60 (60 mg/kg), n = 11): 83.7 ± 9.6 | number of neuronal cell bodies, Thalamus, Dorsolateral, medial, dorsal (pilo-TC60 (60 mg/kg), n = 11): 77.5 ± 3.9**°° | number of neuronal cell bodies, Thalamus, Dorsolateral, ventral lateral (pilo-TC60 (60 mg/kg), n = 11): 56.7 ± 8.7 | number of neuronal cell bodies, Thalamus, Mediodorsal central (pilo-TC60 (60 mg/kg), n = 11): 24.1 ± 1 | number of neuronal cell bodies, Thalamus, Mediodorsal lateral (pilo-TC60 (60 mg/kg), n = 11): 18.9 ± 0.6 | number of neuronal cell bodies, Thalamus, Mediodorsal medial (pilo-TC60 (60 mg/kg), n = 11): 19.1 ± 2.6 | number of neuronal cell bodies, Amygdala, Basolateral (pilo-TC90 (90 mg/kg), n = 10): 40.7 ± 1.6°° | number of neuronal cell bodies, Amygdala, Medial, dorsal anterior (pilo-TC90 (90 mg/kg), n = 10): 72.2 ± 5.7°° | number of neuronal cell bodies, Amygdala, Medial, ventral posterior (pilo-TC90 (90 mg/kg), n = 10): 30.7 ± 3.7°° | number of neuronal cell bodies, Cerebral cortex, Entorhinal, layer II, dorsal (pilo-TC90 (90 mg/kg), n = 10): 26.3 ± 0.9 | number of neuronal cell bodies, Cerebral cortex, Entorhinal, layer II, ventral (pilo-TC90 (90 mg/kg), n = 10): 25.4 ± 1.1° | number of neuronal cell bodies, Cerebral cortex, Entorhinal, layer III/IV, dorsal (pilo-TC90 (90 mg/kg), n = 10): 26.7 ± 0.8 | number of neuronal cell bodies, Cerebral cortex, Entorhinal, layer III/IV, ventral (pilo-TC90 (90 mg/kg), n = 10): 23.7 ± 1.5°° | number of neuronal cell bodies, Cerebral cortex, Piriform, layer II, dorsal (pilo-TC90 (90 mg/kg), n = 10): 32.4 ± 1.1°° | number of neuronal cell bodies, Cerebral cortex, Piriform, layer II, ventral (pilo-TC90 (90 mg/kg), n = 10): 18.4 ± 4.0°° | number of neuronal cell bodies, Cerebral cortex, Piriform, layer III (pilo-TC90 (90 mg/kg), n = 10): 9 ± 3.0°° | number of neuronal cell bodies, Hippocampus, CA1 area (pilo-TC90 (90 mg/kg), n = 10): 47.7 ± 6.6*° | number of neuronal cell bodies, Hippocampus, CA3 area (pilo-TC90 (90 mg/kg), n = 10): 35.1 ± 2.9 | number of neuronal cell bodies, Hippocampus, Hilus (pilo-TC90 (90 mg/kg), n = 10): 37.5 ± 3.1 | number of neuronal cell bodies, Thalamus, Central medial (pilo-TC90 (90 mg/kg), n = 10): 88.2 ± 8.5 | number of neuronal cell bodies, Thalamus, Dorsolateral, medial, dorsal (pilo-TC90 (90 mg/kg), n = 10): 79.4 ± 3.1**°° | number of neuronal cell bodies, Thalamus, Dorsolateral, ventral lateral (pilo-TC90 (90 mg/kg), n = 10): 71.8 ± 5.3°°* | number of neuronal cell bodies, Thalamus, Mediodorsal central (pilo-TC90 (90 mg/kg), n = 10): 27.4 ± 1.5 | number of neuronal cell bodies, Thalamus, Mediodorsal lateral (pilo-TC90 (90 mg/kg), n = 10): 22 ± 1.2*° | number of neuronal cell bodies, Thalamus, Mediodorsal medial (pilo-TC90 (90 mg/kg), n = 10): 23.1 ± 2.8°° | number of neuronal cell bodies, Amygdala, Basolateral (pilo-TC120 (120 mg/kg), n = 8): 42.7 ± 1.3°° | number of neuronal cell bodies, Amygdala, Medial, dorsal anterior (pilo-TC120 (120 mg/kg), n = 8): 80.2 ± 2.6°° | number of neuronal cell bodies, Amygdala, Medial, ventral posterior (pilo-TC120 (120 mg/kg), n = 8): 34.7 ± 1.7°° | number of neuronal cell bodies, Cerebral cortex, Entorhinal, layer II, dorsal (pilo-TC120 (120 mg/kg), n = 8): 27.3 ± 0.5°° | number of neuronal cell bodies, Cerebral cortex, Entorhinal, layer II, ventral (pilo-TC120 (120 mg/kg), n = 8): 25.1 ± 0.6 | number of neuronal cell bodies, Cerebral cortex, Entorhinal, layer III/IV, dorsal (pilo-TC120 (120 mg/kg), n = 8): 26.4 ± 0.7°° | number of neuronal cell bodies, Cerebral cortex, Entorhinal, layer III/IV, ventral (pilo-TC120 (120 mg/kg), n = 8): 24.5 ± 1.4°° | number of neuronal cell bodies, Cerebral cortex, Piriform, layer II, dorsal (pilo-TC120 (120 mg/kg), n = 8): 35.2 ± 1.1°° | number of neuronal cell bodies, Cerebral cortex, Piriform, layer II, ventral (pilo-TC120 (120 mg/kg), n = 8): 30.5 ± 1.3°° | number of neuronal cell bodies, Cerebral cortex, Piriform, layer III (pilo-TC120 (120 mg/kg), n = 8): 15 ± 2.2°° | number of neuronal cell bodies, Hippocampus, CA1 area (pilo-TC120 (120 mg/kg), n = 8): 65.5 ± 2.9°° | number of neuronal cell bodies, Hippocampus, CA3 area (pilo-TC120 (120 mg/kg), n = 8): 39.8 ± 1.5 | number of neuronal cell bodies, Hippocampus, Hilus (pilo-TC120 (120 mg/kg), n = 8): 44.8 ± 2.9 | number of neuronal cell bodies, Thalamus, Central medial (pilo-TC120 (120 mg/kg), n = 8): 108.2 ± 6.6° | number of neuronal cell bodies, Thalamus, Dorsolateral, medial, dorsal (pilo-TC120 (120 mg/kg), n = 8): 89.8 ± 3.7*° | number of neuronal cell bodies, Thalamus, Dorsolateral, ventral lateral (pilo-TC120 (120 mg/kg), n = 8): 79.0 ± 4.7°° | number of neuronal cell bodies, Thalamus, Mediodorsal central (pilo-TC120 (120 mg/kg), n = 8): 29.9 ± 1.7° | number of neuronal cell bodies, Thalamus, Mediodorsal lateral (pilo-TC120 (120 mg/kg), n = 8): 24.4 ± 1.1°° | number of neuronal cell bodies, Thalamus, Mediodorsal medial (pilo-TC120 (120 mg/kg), n = 8): 28.6 ± 0.8°°

From patent publication US20090137652A1, “METHODS FOR NEUROPROTECTION” (priority 2005, published 2009)
